According to patent US20120022054A1, “NOVEL SUBSTITUTED ARYL DERIVATIVES, THEIR PROCESS OF PREPARATION AND THEIR THERAPEUTICAL USES AS ANTI-HIV AGENTS” (priority 2008, published 2012):
Read-outs that look alike come from different tables or passages of the source.

Tested on: NL4-3 strain of HIV-1
Test: Multiple cycle infection assay of CAp24 antigen production
Type: cell-based
Conditions: Human immunodeficiency virus 1, NL43, SUP-T1, 96 h, multiple cycle infection with NL4-3 virus, SupT1, MT4 or PBMC, MOI 0.01, day 4 and day −6 post-infection, read-out: EC50 for antiviral activity (50% inhibition of CA p24 production)

Row | Compound | EC50 (threshold below 500 nM) | EC50 (threshold below 5 μM)
1 | COc1ccc(F)cc1CN(C)C(=O)CCCn1cc(-c2ccc(O)cc2)cn1 [Example 176, N-(5-Fluoro-2-methoxybenzyl)-4-[4-(4-hydroxyphenyl)pyrazol-1-yl]-N-methylbutanamide] | < 500 nM | < 5000 nM
2 | CN(C(=O)CCCSc1ccc(F)cc1)c1cccc2ccccc12 [Example 169, 4-[(4-Fluorophenyl)thio]-N-methyl-N-1-naphthylbutanamide] | < 500 nM | < 5000 nM
3 | COc1ccc(F)cc1CN(C)C(=O)CCCn1cc(-c2ccc(F)cc2C)cn1 [Example 175, N-(5-Fluoro-2-methoxybenzyl)-4-[4-(4-fluoro-2-methylphenyl)pyrazol-1-yl]-N-methylbutanamide] | < 500 nM | < 5000 nM
4 | COc1ccc([S+]([O-])CCCC(=O)N(C)Cc2cc(Cl)ccc2OC)cc1 (centres unmarked) [Example 116, N-(5-chloro-2-methoxybenzyl)-4-[(4-methoxyphenyl)sulfinyl]-N-methylbutanamide] | < 500 nM | < 5000 nM
5 | COc1ccc(C(=O)CCCC(=O)N(C)Cc2cc(Cl)ccc2OC)cc1 [Example 125, N-(5-chloro-2-methoxybenzyl)-5-(4-methoxyphenyl)-N-methyl-5-oxopentanamide] | < 500 nM | < 5000 nM
6 | COc1ccc(-c2cnn(CCCC(=O)N(C)Cc3cc(F)ccc3OC)c2)cc1 [Example 174, N-(5-Fluoro-2-methoxybenzyl)-4-[4-(4-methoxyphenyl)pyrazol-1-yl]-N-methylbutanamide] | < 500 nM | < 5000 nM
7 | COc1ccc(F)cc1CN(C)C(=O)CCCSc1ccc(F)cc1 [Example 84, N-(5-Fluoro-2-methoxybenzyl)-4-[(4-fluorophenyl)thio]-N-methylbutanamide] | < 500 nM | < 5000 nM
8 | COc1ccc([S+]([O-])CCCC(=O)N(C)Cc2cc(F)ccc2OC)cc1 (centres unmarked) [Example 104, N-(5-fluoro-2-methoxybenzyl)-4-[(4-methoxyphenyl)sulfinyl]-N-methylbutanamide] | < 500 nM | < 5000 nM
9 | COc1ccc(F)cc1CN(C)C(=O)CCCSc1ccc(O)cc1 [Example 71, N-(5-Fluoro-2-methoxybenzyl)-4-[(4-hydroxyphenyl)thio]-N-methylbutanamide] | < 500 nM | < 5000 nM
10 | COc1ccc(F)cc1CN(C)C(=O)CCCn1cc(-c2ccncc2)cn1 [Example 178, N-(5-Fluoro-2-methoxybenzyl)-4-(4-pyridin-4-yl-pyrazol-1-yl)-N-methylbutanamide] | < 500 nM | < 5000 nM
11 | CN(C(=O)CCCSc1ccc(F)cc1)c1nccc2ccccc12 [Example 128, 4-[(4-fluorophenyl)thio]-N-isoquinolin-1-yl-N-methylbutanamide] | < 500 nM | < 5000 nM
12 | CC(C)Oc1ccc(F)cc1CN(C)C(=O)CCCSc1ccc(F)cc1 [Example 85, N-(5-Fluoro-2-isopropoxybenzyl)-4-[(4-fluorophenyl)thio]-N-methylbutanamide] | < 500 nM | < 5000 nM
13 | COc1ccc(Cl)cc1CN(C)C(=O)CCCSc1ccc(OC(C)C)cc1 [Example 113, N-(5-chloro-2-methoxybenzyl)-4-[(4-isopropoxyphenyl)thio]-N-methylbutanamide] | < 500 nM | < 5000 nM
14 | CN(C(=O)CCCSc1ccc(F)cc1)c1cccc2cccnc12 [Example 130, 4-[(4-fluorophenyl)thio]-N-methyl-N-quinolin-8-ylbutanamide] | < 500 nM | < 5000 nM
15 | COc1ccc(F)cc1CN(C)C(=O)CCCn1ccc2cc(F)ccc21 [Example 106, 4-(5-fluoro-1H-indol-1-yl)-N-(5-fluoro-2-methoxybenzyl)-N-methylbutanamide] | < 500 nM | < 5000 nM
16 | COc1ccc(F)cc1CN(C)C(=O)CCCSc1ccc(Br)cc1 [Example 145, 4-[(4-Bromophenyl)thio]-N-(5-fluoro-2-methoxybenzyl)-N-methylbutanamide] | < 500 nM | < 5000 nM
